Assay results published in patent publication US12655142B2 (Merck Patent GmbH, priority 2019, dated 2026).

Tests used:
[1] = Determination of Efflux-Ratio (ER) in Caco-2 cells; settings: human, Caco-2, pH 7.4
[2] = target: T1, GIST430 cell line expressing constitutive active cKIT receptor tyrosine kinase (Δ560-576 deletion) (Homo sapiens, UniProt P10721, DEL560-576); assay: Cellular cKIT autophosphorylation (phospho-Y307-cKIT, Luminex bead assay) in GIST430 cells; type: cell-based; settings: cKIT autophosphorylation, GIST430 cells, compounds 45 min; read-out: GIST 430 IC50
T1 construct: endogenous in cells; host or cells: GIST430 cells
Procedure: Assay Principle for Cellular Testing of cKIT Mutant Inhibitors
The GIST430 cell line expressing constitutive active cKIT receptor tyrosine kinase (Δ560-576 deletion) and the Imatinib resistant GIST430/654 cell line expressing mutated constitutively active cKIT receptor tyrosine kinase (Δ560-576 deletion and V654A point mutation) were employed for assessing cellular potency of compounds. Cellular activity of mutant cKIT was determined by the degree of cKIT autophosphorylation at tyrosine 307 using a Luminex-based bead assay. GIST430 cells were plated with 22,000 cells per well of a 96-well plate in 100 μl medium (85% IMDM/15% FCS) and GIST430/654 cells were plated with 25,000 cells per well of a 96-well plate in 100 μl medium (85% IMDM/15% FCS supplemented with 100 nM Imatinib). At the following day compounds were added in a serial dilution for 45 min. Then, cells were lysed with 90 μl lysis buffer (20 mM Hepes pH 7.5, 200 mM NaCl, 1.5 mM MgCl2×6H2O, 0.4 mM EDTA, 1% Triton-X-100, 1% Phosphatase-Inhibitor II, 20 mM β-Glycerolphosphat, 0.1% Protease-Inhibitor Cocktail III, 0.01% Benzonase) and lysates were cleared by centrifugation through a 96-well filter plate (0.65 μm). Samples were incubated with Luminex-beads which were coupled with an anti-total cKIT antibody overnight at 4° C. under gentle agitation. For detection of phospho-Y307-cKIT a phosphospecific antibody and a species-specific PE-labeled secondary antibody were added. The amount of phospho-Y307-cKIT was determined in a Luminex 200 instrument measuring 100 events per well within 60 seconds.
Counts from samples treated with compounds were calculated as percent of control from solvent treated (0.3% DMSO) samples. Dose-response curves were fitted and IC50 values were determined using Genedata Screener software.

c-Kit(V654A) = target: T2, c-Kit(V654A) (Homo sapiens, UniProt P10721, V654A); assay: c-Kit(V654A) assay (33P-ATP filter binding kinase assay); type: biochemical; settings: recombinant human c-Kit aa 544-end V654A, ATP 200 μM
T2 construct: recombinant human c-Kit, amino acids 544-end containing the V654A mutation; GST (N)
Outline: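 Radiometric filter-binding read-out: substrate 33P incorporation counted by scintillation after P30 filtermat washes in 75 mM phosphoric acid and methanol. Enzyme: N-GST recombinant human c-Kit aa 544-end carrying V654A.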

[3] = target: T3, GIST430/654 cell line expressing mutated constitutively active cKIT receptor tyrosine kinase (Δ560-576 deletion and V654A point mutation) (Homo sapiens, UniProt P10721, DEL560-576/V654A); assay: Cellular cKIT autophosphorylation (phospho-Y307-cKIT, Luminex bead assay) in GIST430/654 cells; type: cell-based; settings: compounds 45 min, read-out: GIST 430/654 IC50
T3 construct: endogenous in cells; host or cells: GIST430/654 cells
Outline: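 Phospho-Y307 cKIT in lysates was measured on a Luminex bead assay, with total-cKIT capture overnight at 4 °C and phosphospecific plus PE secondary detection. Cells had 45 min exposure to a compound dilution series the day after plating: GIST430 (Δ560-576) or GIST430/654 (Δ560-576/V654A, grown with 100 nM imatinib). IC50 values are relative to 0.3% DMSO-treated cells.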

T3 sequence (P10721 with tags, fused parts or gaps DEL560-576/V654A): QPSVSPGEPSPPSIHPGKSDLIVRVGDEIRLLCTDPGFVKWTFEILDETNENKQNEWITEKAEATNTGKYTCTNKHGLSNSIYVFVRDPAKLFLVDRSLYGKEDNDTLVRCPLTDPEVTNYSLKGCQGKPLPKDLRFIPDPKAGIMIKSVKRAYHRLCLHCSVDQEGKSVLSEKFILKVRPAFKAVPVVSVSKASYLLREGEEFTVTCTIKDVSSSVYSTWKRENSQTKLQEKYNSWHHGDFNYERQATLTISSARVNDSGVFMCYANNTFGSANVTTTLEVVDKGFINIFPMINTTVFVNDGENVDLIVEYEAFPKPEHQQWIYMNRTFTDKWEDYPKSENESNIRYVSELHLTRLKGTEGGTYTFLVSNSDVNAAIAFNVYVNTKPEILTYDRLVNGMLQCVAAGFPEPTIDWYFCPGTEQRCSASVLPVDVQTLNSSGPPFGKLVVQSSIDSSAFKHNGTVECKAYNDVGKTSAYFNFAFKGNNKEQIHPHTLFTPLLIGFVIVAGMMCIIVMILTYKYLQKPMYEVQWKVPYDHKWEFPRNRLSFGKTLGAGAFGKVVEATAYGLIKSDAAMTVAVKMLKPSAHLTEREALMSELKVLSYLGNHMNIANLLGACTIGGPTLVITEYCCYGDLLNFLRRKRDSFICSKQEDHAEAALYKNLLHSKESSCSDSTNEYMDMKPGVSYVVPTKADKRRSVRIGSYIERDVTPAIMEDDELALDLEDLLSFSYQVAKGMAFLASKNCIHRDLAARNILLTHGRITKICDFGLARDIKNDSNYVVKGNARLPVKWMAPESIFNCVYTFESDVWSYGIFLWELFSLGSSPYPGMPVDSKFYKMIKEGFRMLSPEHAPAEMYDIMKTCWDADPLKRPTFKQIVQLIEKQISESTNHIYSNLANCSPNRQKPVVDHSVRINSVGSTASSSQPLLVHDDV
T2 sequence (P10721 544-976 V654A): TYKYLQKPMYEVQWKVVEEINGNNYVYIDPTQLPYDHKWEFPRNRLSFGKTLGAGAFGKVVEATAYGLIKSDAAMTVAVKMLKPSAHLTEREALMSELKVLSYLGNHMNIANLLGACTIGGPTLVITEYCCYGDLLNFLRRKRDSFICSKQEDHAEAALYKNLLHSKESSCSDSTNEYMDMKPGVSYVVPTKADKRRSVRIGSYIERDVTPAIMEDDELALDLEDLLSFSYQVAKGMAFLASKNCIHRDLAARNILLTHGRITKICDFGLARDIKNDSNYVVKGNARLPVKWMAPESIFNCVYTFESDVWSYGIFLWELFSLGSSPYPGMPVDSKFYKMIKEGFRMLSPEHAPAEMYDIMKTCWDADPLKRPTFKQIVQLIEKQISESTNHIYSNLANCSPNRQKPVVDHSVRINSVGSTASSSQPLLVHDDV
T1 sequence (P10721 with tags, fused parts or gaps DEL560-576): as the sequence (P10721 with tags, fused parts or gaps DEL560-576/V654A) above, with A612V counted along it

SMILES | efflux ratio at 2 h, 1 μM [1] | IC50 [2] [nM] | IC50 (c-Kit(V654A)) [nM] | IC50 [3] [nM]
COCCOc1ccn2c(-c3cc(NCc4ccc(-c5ccn(C)n5)cc4)ncn3)cnc2c1 [A7, 6-[7-(2-methoxyethoxy)imidazo[1,2-a]pyridin-3-yl]-N-{[4-(1-methyl-1H-pyrazol-3-yl)phenyl]methyl}pyrimidin-4-amine] |  | 6.1 | 4.7 | 300
Cn1cc(-c2ccc(CNc3cc(-c4cnc5cc(N6CCCC6)ccn45)ncn3)cc2)cn1 [A177, [4-(1-methyl-1H-pyrazol-4-yl)-benzyl]-[6-(7-pyrrolidin-1-yl-imidazo[1,2-a]pyridin-3-yl)-pyrimidin-4-yl]-amine] | < 15 | 15 | 17 | 34
Cc1nc(-c2ccc(CNc3cc(-c4cnc5cc(OCCN6CCn7nncc7C6)ccn45)ncn3)cc2)co1 [A264, N-{[4-(2-methyl-1,3-oxazol-4-yl)phenyl]methyl}-6-[7-(2-{4H,5H,6H,7H-[1,2,3]triazolo[1,5-a]pyrazin-5-yl}ethoxy)imidazo[1,2-a]pyridin-3-yl]pyrimidin-4-amine] | 15 to 50 | 1.1 | 1.6 | 36
COCCOc1ccn2c(-c3cc(NCc4ccc(-c5ccccc5)cc4)ncn3)cnc2c1 [A2, N-({[1,1′-biphenyl]-4-yl}methyl)-6-[7-(2-methoxyethoxy)imidazo[1,2-a]pyridin-3-yl]pyrimidin-4-amine] | < 15 | 7.7 | 4.6 | 160
Cn1cc(-c2ccc(CNc3cc(-c4cnc5cc(N6CCC(CCO)C6)ccn45)ncn3)cc2)cn1 (centres unmarked) [A178, 2-[1-(3-{6-[4-(1-methyl-1H-pyrazol-4-yl)-benzylamino]-pyrimidin-4-yl}-imidazo[1,2-a]pyridin-7-yl)-pyrrolidin-3-yl]-ethanol] | < 15 | 3.8 | 19 | 47
COc1ccn2c(-c3cc(NCc4ccc(-c5cccnc5)cc4)ncn3)cnc2c1 [A6, 6-{7-methoxyimidazo[1,2-a]23yridine-3-yl}-N-{[4-(23yridine-3-yl)phenyl]methyl}pyrimidin-4-amine] |  | 20 | 6.4 | 350
Cc1cc(N2CC[C@H](F)C2)ncc1CNc1cc(-c2cnc3ccccn23)ncn1 [A155, [6-((S)-3-fluoro-pyrrolidin-1-yl)-4-methyl-pyridin-3-ylmethyl]-(6-imidazo[1,2-a]pyridin-3-yl-pyrimidin-4-yl)-amine] |  | 51 | 92 | 30000

Other lines, results leading:

efflux ratio at 2 h, 1 μM [1] | IC50 [2] [nM] | IC50 (c-Kit(V654A)) [nM] | IC50 [3] [nM] | SMILES
< 15 | 4.3 | 2.3 | 66 | CC1(F)CCN(CCCOc2ccn3c(-c4cc(NCc5ccc(-c6cocn6)cc5)ncn4)cnc3c2)CC1 [A263, 6-{7-[3-(4-fluoro-4-methylpiperidin-1-yl)propoxy]imidazo[1,2-a]pyridin-3-yl}-N-{[4-(1,3-oxazol-4-yl)phenyl]methyl}pyrimidin-4-amine]
 | 2.4 | 2.2 | 190 | c1ccn2c(-c3cc(NCc4ccc(-n5cccn5)cc4)ncn3)cnc2c1 [A9, (6-Imidazo[1,2-a]23yridine-3-yl-pyrimidin-4-yl)-(4-pyrazol-1-yl-benzyl)-amine]
 | 8.8 | 6.6 | 230 | COc1ccn2c(-c3ncnc(NCc4ccc(-c5cnn(C)c5)cc4)c3F)cnc2c1 [A97, 5-fluoro-6-{7-methoxyimidazo[1,2-a]pyridin-3-yl}-N-{[4-(1-methyl-1H-pyrazol-4-yl)phenyl]methyl}pyrimidin-4-amine]
 | 7 | 15 | 170 | COCCOc1ccn2c(-c3cc(NCc4ccc(-c5cnn(C)c5)nc4)ncn3)cnc2c1 [A11, 6-[7-(2-methoxyethoxy)imidazo[1,2-a]pyridin-3-yl]-N-{[6-(1-methyl-1H-pyrazol-4-yl)pyridin-3-yl]methyl}pyrimidin-4-amine]
